Experimental data from US20050187181A1 (University of Maryland, priority 2004, published 2005).
“Also recorded” adds a separate entry of the source.

Legend:
Na/K ATPase = Na/K ATPase assay (86Rb uptake into red blood cells);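 for all read-outs here: washed human red blood cells in K-free Ringer, test agent preincubated 20 min, then 86Rb uptake over 4 h at 37 °C counted as CPM per tube versus water control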; conditions: for effect of pyrimidines on Na/K ATPase: doses ranging from 10^-3 to 10^-10 M; for effect of hormones on Na/K ATPase activity: doses of 10^-3 to 10^-9 M; for Na/K ATPase stimulatory activity of adenosine analogs and metabolites: 1 mM (FIG. 4)
Method: Human red blood cells of any group-type were donated for research by the Blood Bank of the University Of Maryland, School of Medicine. Five ml of red cells are washed 3 times in 40 ml of Potassium free Ringers solution (141 mM NaCl, 1 mM H2NaPO4, 0.5 mM CaCl2, 1 mM MgSO4, 4.5 mM glucose, 10 mM HEPES pH7.4). 50 μl of washed red cells are added to 220 μl of potassium free Ringers solution. 30, 10, 3 or 1 μl of ultra-filtrate, HPLC (high performance liquid chromatography) fraction, or adenosine, inosine, guanosine, deoxyadenosine, deoxyguanosine, caffeine, aminophylline, dipyridamole, NBTI, 6thioinosine, 6thioguanosine, or EHNA (all in buffer) is added to the mixture and incubated for 20 min. 4 μCi of 86RbCl is added and incubated for 4 hrs at 37° C. The mixture is than washed three times with 4° C. Potassium free Ringers solution and the cells counted in a gamma counter (Packard, Cobra II). Na/K ATPase activity is expressed as the CPM (counts per minute) (CPM/tube*4 hrs). The effects of ultra-filtrate or HPLC fractions on ^86Rb uptake into red cells are compared to equal volumes of either water (control) or, in some cases, 0.01 mM Ouabain (maximal inhibition).

[1] = test system: rats in severe hemorrhagic shock; conditions: for effect on shock-elevated plasma K^+: 0.5 hr; for Plasma K^+ 0.5 hr after Resuscitation: mean ± SE, N = 7/group
Method: Pentobarbital-anesthetized rats were subjected to severe hemorrhagic shock. Five groups of eight rats were resuscitated.
Plasma K^+ was measured from plasma taken before hemorrhage, before resuscitation and 0.5 hrs after resuscitation using a K^+ electrode (Jenco Electronics, Inc., San Diego, Calif.). Survival time between groups was compared by Kaplan-Meier survival Analysis.

## Nc1ccn([C@@H]2O[C@H](CO)[C@@H](O)[C@H]2O)c(=O)n1 [cytidine, reference compound]
Na/K ATPase
  effect of pyrimidines on Na/K ATPase: had no effect in the assay
[1]; 2.5 mM in saline
  time to 100% mortality: 50 min
  time within which all resuscitated rats died: ≤ 52 min
  effect on shock-elevated plasma K^+: did not lower plasma K^+ concentration
  Plasma K^+ 0.5 hr after Resuscitation: 4.30 ± 0.35 mM
[1]; 2.5 mM in saline (FIG. 15)
  mean arterial blood pressure after resuscitation: mean arterial blood pressure fell earlier

## Nc1nc2c(ncn2[C@@H]2O[C@H](CO)[C@@H](O)[C@H]2O)c(=O)[nH]1 [guanosine]
Na/K ATPase; 10^-3 Molar (FIG. 8)
  relative effectiveness at stimulating Na/K ATPase: both equally effective
Na/K ATPase; human red blood cells, dose response (FIG. 3b, FIG. 8)
  stimulation of Na/K ATPase: stimulated Na/K ATPase in a dose-dependent manner
Na/K ATPase; partial inhibition / sub maximal doses of ouabain (FIG. 9)
  stimulation of Na/K ATPase in the presence of ouabain: overcame partial inhibition by ouabain
[1]; 2.5 mM in saline
  bradycardia on resuscitation from hemorrhagic shock: did not cause the bradycardia
  time to 50% mortality: sooner than with inosine
  time to 100% mortality: 200 min
  effect on shock-elevated plasma K^+: lowered the shock-elevated plasma K^+
  Plasma K^+ 0.5 hr after Resuscitation: 3.01 ± 0.15 mM
[1]; rat, in vivo
  adverse effects on resuscitation from hemorrhagic shock: without any adverse effects
[1]; single dose of 2.5 mM in saline, 8 rats/group, p<0.001
  survival compared to saline and cytidine controls (Kaplan-Meier): survived significantly longer than saline or cytidine controls; also recorded: significantly increased survival; also recorded: survived significantly longer

## C[C@@H]1O[C@@H](O[C@H]2C[C@@H](O)[C@]3(CO)[C@H]4[C@H](O)C[C@]5(C)[C@@H](C6=CC(=O)OC6)CC[C@]5(O)[C@@H]4CC[C@]3(O)C2)[C@H](O)[C@H](O)[C@H]1O [ouabain]
Na/K ATPase; FIG. 3a
  inhibition of Na/K ATPase stimulation by the rat plasma ultra-filtrate: inhibited in a dose-dependent manner
Na/K ATPase; FIG. 3c
  inhibition of Na/K ATPase stimulation by adenosine: inhibited in a dose dependent manner
Na/K ATPase; maximal doses of ouabain (FIG. 9)
  inhibition of Na/K ATPase stimulation by inosine, guanosine, deoxyadenosine and deoxyguanosine: inhibited by maximal doses of ouabain

## Cc1cn([C@H]2C[C@H](O)[C@@H](CO)O2)c(=O)[nH]c1=O [thymidine]
Na/K ATPase
  effect of pyrimidines on Na/K ATPase: had no effect in the assay

## N[C@@H](Cc1cc(I)c(Oc2cc(I)c(O)c(I)c2)c(I)c1)C(=O)O [thyroxine]
Na/K ATPase
  effect of hormones on Na/K ATPase activity: had no effect on Na/K ATPase activity

## O=c1[nH]c(=O)c2[nH]c(=O)[nH]c2[nH]1 [uric acid]
Na/K ATPase
  Na/K ATPase stimulatory activity of adenosine analogs and metabolites: little or no Na/K ATPase stimulatory activity

## O=c1ccn([C@@H]2O[C@H](CO)[C@@H](O)[C@H]2O)c(=O)[nH]1 [uridine]
Na/K ATPase
  effect of pyrimidines on Na/K ATPase: had no effect in the assay

## NC(=O)CC[C@@H]1NC(=O)[C@H](Cc2ccccc2)NC(=O)[C@H](Cc2ccc(O)cc2)NC(=O)[C@@H](N)CSSC[C@@H](C(=O)N2CCC[C@H]2C(=O)N[C@@H](CCCN=C(N)N)C(=O)NCC(N)=O)NC(=O)[C@H](CC(N)=O)NC1=O [vasopressin]
Na/K ATPase
  effect of hormones on Na/K ATPase activity: had no effect on Na/K ATPase activity

## O=c1[nH]c(=O)c2[nH]cnc2[nH]1 [xanthine]
Na/K ATPase
  Na/K ATPase stimulatory activity of adenosine analogs and metabolites: little or no Na/K ATPase stimulatory activity

## Insulin
Na/K ATPase
  effect of hormones on Na/K ATPase activity: had no effect on Na/K ATPase activity
